Holding throughout (assay type): functional
In one experiment the test system is Brucella suis. The experiment can be described thus: Antimicrobial activity against Brucella suis ATCC 23445 after 24 hrs. The settings on record: ATCC 23445, 24 h.
Experiment [1] relates to Burkholderia pseudomallei. The experiment can be described thus: Antimicrobial activity against Burkholderia pseudomallei BURK003(1026b) after 24 hrs.
The test system of a further experiment is Francisella tularensis. The experiment can be described thus: Antimicrobial activity against Francisella tularensis SCHU-S4 after 24 hrs. The settings on record: SCHU-S4, 24 h.
The next experiment has as its system Yersinia pestis. The experiment can be described thus: Antimicrobial activity against Yersinia pestis CO92 after 24 hrs. The settings on record: CO92, 24 h.
A further experiment relates to Brucella melitensis. The experiment can be described thus: Antimicrobial activity against Brucella melitensis 16 M after 24 hrs.
Experiment [2] deals with Acinetobacter baumannii. The experiment can be described thus: Antimicrobial activity against Acinetobacter baumannii WRAIR after 24 hrs.
Another experiment relates to Brucella abortus. The experiment is described as follows: Antimicrobial activity against Brucella abortus 2308 after 24 hrs. The settings on record: Brucella abortus, 2308, 24 h.
The test system of another experiment is Staphylococcus aureus. The experiment is described as follows: Antimicrobial activity against methicillin-resistant Staphylococcus aureus ATCC 33591 after 24 hrs. The settings on record: ATCC 33591, 24 h.
Experiment [3] deals with Acinetobacter baumannii. The experiment is described as follows: Antimicrobial activity against Acinetobacter baumannii ATCC 19606 after 24 hrs. The settings on record: ATCC 19606 = CIP 70.34 = JCM 6841, 24 h.
In a further experiment the test system is Burkholderia mallei. The experiment can be described thus: Antimicrobial activity against Burkholderia mallei ATCC 23444 after 24 hrs. The settings on record: ATCC 23444, 24 h.
Another experiment deals with Bacillus anthracis. The experiment can be described thus: Antimicrobial activity against Bacillus anthracis Ames after 24 hrs.

Values after ≈ are worked out from the molar mass of the structure shown. Starred links: 1 amine or outer side, 2 acyl side, 3 side chain; linkers in the order of their positions; H or OH if unused. Non-standard residues stand in square brackets, D forms with d. Residues, ends and D or L forms follow the SMILES beside them. ξ: configuration not given here. Pro(3ξ,4ξ-(CH2)4) = O=C(O)[C@H]1NCC2CCCCC21; Oic = O=C(O)[C@@H]1C[C@@H]2CCCC[C@@H]2N1; X1 = O=C([C@@H]1CN([*:1])C2CCCCC21)[*:2]; X3 = O=C(C[C@H]1C2CCCCC2CN1[*:1])[*:2]; Tic = O=C(O)[C@@H]1Cc2ccccc2CN1; Dap = NC[C@H](N)C(=O)O; Ahx = NCCCCCC(=O)O

On to `CC(=O)N[C@@H](Cc1ccccc1)C(=O)N1Cc2ccccc2C[C@H]1C(=O)N1CC2CCCCC2[C@H]1C(=O)N[C@@H](CCCCN)C(=O)N1Cc2ccccc2C[C@H]1C(=O)N1CC2CCCCC2[C@H]1C(=O)N[C@@H](Cc1ccccc1)C(=O)N1Cc2ccccc2C[C@H]1C(=O)N1CC2CCCCC2[C@H]1C(=O)N[C@@H](CCCCN)C(=O)N1Cc2ccccc2C[C@H]1C(=O)N[C@@H](CCCCN)C(=O)N[C@@H](CCCCN)C(=O)N[C@@H](CCCCN)C(=O)N[C@@H](CCCCN)C(=O)N[C@@H](CCCCN)C(=O)N[C@@H](CCCCN)C(N)=O` (stereo partly specified) (Ac-F[Tic][Pro(3ξ,4ξ-(CH2)4)]K[Tic][Pro(3ξ,4ξ-(CH2)4)]F[Tic][Pro(3ξ,4ξ-(CH2)4)]K[Tic]KKKKKK-NH2), for which the MIC amounted to 13 µM (≈ 32.1 µg/mL) in the experiment with Brucella suis; 202 µM (≈ 499 µg/mL) in experiment [1]; 202 µM (≈ 499 µg/mL) against Francisella tularensis; 101 µM (≈ 249 µg/mL) with Yersinia pestis; 202 µM (≈ 499 µg/mL) against Brucella melitensis; 6.3 µM (≈ 15.6 µg/mL) against Acinetobacter baumannii [2]. The MIC in the experiment on Brucella abortus was determined as 101 µM (≈ 249 µg/mL); in the experiment on Staphylococcus aureus, 25.3 µM (≈ 62.5 µg/mL); in the experiment with Acinetobacter baumannii [3] it was 6.3 µM (≈ 15.6 µg/mL); in the experiment on Burkholderia mallei, 202 µM (≈ 499 µg/mL); in the experiment on Bacillus anthracis it was 0.75 µM (≈ 1.85 µg/mL).
For `CC(=O)NCC(=O)N[C@@H](Cc1ccccc1)C(=O)N[C@@H](Cc1ccccc1)C(=O)N1CC2CCCCC2[C@H]1C(=O)NCC(=O)N[C@@H](CCCCN)C(=O)N[C@@H](Cc1ccccc1)C(=O)N1CC2CCCCC2[C@H]1C(=O)NCC(=O)N[C@@H](Cc1ccccc1)C(=O)N[C@@H](Cc1ccccc1)C(=O)N1CC2CCCCC2[C@@H]1CC(=O)N[C@@H](CCCCN)C(=O)N[C@@H](Cc1ccccc1)C(=O)N[C@@H](CCCCN)C(=O)N[C@@H](CCCCN)C(=O)N[C@@H](CCCCN)C(=O)N[C@@H](CCCCN)C(N)=O` (stereo partly specified) (Ac-GFF[Pro(3ξ,4ξ-(CH2)4)]GKF[Pro(3ξ,4ξ-(CH2)4)]GFF[X3]KFKKKK-NH2), the MIC in the experiment on Brucella suis is 26 µM (≈ 61.1 µg/mL); in experiment [1], 208 µM (≈ 489 µg/mL); in the experiment on Francisella tularensis, 0.01 µM (≈ 0.0235 µg/mL); against Yersinia pestis it was 3.2 µM (≈ 7.52 µg/mL); in the experiment with Brucella melitensis, 26 µM (≈ 61.1 µg/mL); in the experiment with Acinetobacter baumannii [2], 3.2 µM (≈ 7.52 µg/mL). Moreover, the minimal inhibitory concentration (MIC) with Brucella abortus is 26 µM (≈ 61.1 µg/mL); against Staphylococcus aureus, 208 µM (≈ 489 µg/mL); against Acinetobacter baumannii [3] it was 3.2 µM (≈ 7.52 µg/mL); against Burkholderia mallei, 208 µM (≈ 489 µg/mL); in the experiment on Bacillus anthracis it was 0.2 µM (≈ 0.47 µg/mL).
On to `CC(=O)NCC(=O)N[C@@H](Cc1ccccc1)C(=O)N1Cc2ccccc2C[C@H]1C(=O)N1[C@H](C(=O)NCC(=O)N[C@@H](CCCCN)C(=O)N2Cc3ccccc3C[C@H]2C(=O)N2[C@H](C(=O)NCC(=O)N[C@@H](Cc3ccccc3)C(=O)N3Cc4ccccc4C[C@H]3C(=O)N3[C@H](C(=O)NCC(=O)N[C@@H](CCCCN)C(=O)N4Cc5ccccc5C[C@H]4C(=O)N[C@@H](CCCCN)C(=O)N[C@@H](CCCCN)C(=O)N[C@@H](CCCCN)C(=O)N[C@@H](CCCCN)C(N)=O)C[C@@H]4CCCC[C@@H]43)C[C@@H]3CCCC[C@@H]32)C[C@@H]2CCCC[C@@H]21` (Ac-GF[Tic][Oic]GK[Tic][Oic]GF[Tic][Oic]GK[Tic]KKKK-NH2), for which the minimum inhibitory concentration (MIC) was 205 µM (≈ 500 µg/mL) in the experiment on Brucella suis; 205 µM (≈ 500 µg/mL) in experiment [1]; 100 µM (≈ 244 µg/mL) in the experiment on Francisella tularensis; 205 µM (≈ 500 µg/mL) against Yersinia pestis; 205 µM (≈ 500 µg/mL) against Brucella melitensis; 3.2 µM (≈ 7.81 µg/mL) with Acinetobacter baumannii [2]. Also, the MIC against Brucella abortus is 205 µM (≈ 500 µg/mL); against Staphylococcus aureus, 205 µM (≈ 500 µg/mL); in the experiment with Acinetobacter baumannii [3], 3.2 µM (≈ 7.81 µg/mL); in the experiment with Burkholderia mallei, 205 µM (≈ 500 µg/mL); against Bacillus anthracis, 12.8 µM (≈ 31.2 µg/mL).
Take `CC(=O)NCC(=O)N[C@@H](Cc1ccccc1)C(=O)N1Cc2ccccc2C[C@H]1C(=O)N1[C@H](C(=O)NCC(=O)N[C@@H](CN)C(=O)N2Cc3ccccc3C[C@H]2C(=O)N2[C@H](C(=O)NCC(=O)N[C@@H](Cc3ccccc3)C(=O)N3Cc4ccccc4C[C@H]3C(=O)N3[C@H](C(=O)NCC(=O)N[C@@H](CN)C(=O)N4Cc5ccccc5C[C@H]4C(=O)N[C@@H](CN)C(=O)N[C@@H](CN)C(=O)N[C@@H](CN)C(=O)N[C@@H](CN)C(N)=O)C[C@@H]4CCCC[C@@H]43)C[C@@H]3CCCC[C@@H]32)C[C@@H]2CCCC[C@@H]21` (Ac-GF[Tic][Oic]G[Dap][Tic][Oic]GF[Tic][Oic]G[Dap][Tic][Dap][Dap][Dap][Dap]-NH2): the MIC was determined as 228 µM (≈ 499 µg/mL) against Brucella suis; 228 µM (≈ 499 µg/mL) in experiment [1]; 228 µM (≈ 499 µg/mL) against Francisella tularensis; 228 µM (≈ 499 µg/mL) in the experiment with Yersinia pestis; 228 µM (≈ 499 µg/mL) against Brucella melitensis; 3.6 µM (≈ 7.88 µg/mL) against Acinetobacter baumannii [2]. Also, the minimum inhibitory concentration (MIC) in the experiment with Brucella abortus was determined as 228 µM (≈ 499 µg/mL); in the experiment with Staphylococcus aureus it was 114 µM (≈ 249 µg/mL); in the experiment with Acinetobacter baumannii [3] it was 3.6 µM (≈ 7.88 µg/mL); with Burkholderia mallei, 228 µM (≈ 499 µg/mL); in the experiment with Bacillus anthracis, 14.8 µM (≈ 32.4 µg/mL).
Regarding `CC(=O)NCC(=O)N[C@@H](Cc1ccccc1)C(=O)N1Cc2ccccc2C[C@H]1C(=O)N1C[C@@H](C(=O)NCC(=O)N[C@@H](CCCCN)C(=O)N2Cc3ccccc3C[C@H]2C(=O)N2C[C@@H](C(=O)NCC(=O)N[C@@H](Cc3ccccc3)C(=O)N3Cc4ccccc4C[C@H]3C(=O)N3C[C@@H](C(=O)NCC(=O)N[C@@H](CCCCN)C(=O)N4Cc5ccccc5C[C@H]4C(=O)N[C@@H](CCCCN)C(=O)N[C@@H](CCCCN)C(=O)N[C@@H](CCCCN)C(N)=O)C4CCCCC43)C3CCCCC32)C2CCCCC21` (stereo partly specified) (Ac-GF[Tic][X1]GK[Tic][X1]GF[Tic][X1]GK[Tic]KKK-NH2), the MIC in the experiment on Brucella suis was > 216 µM; in [1] it was 0.02 µM (≈ 0.0463 µg/mL); against Francisella tularensis it was 0.02 µM (≈ 0.0463 µg/mL); against Yersinia pestis it was 27 µM (≈ 62.4 µg/mL); against Brucella melitensis it was 54 µM (≈ 125 µg/mL); against Acinetobacter baumannii [2], 3.4 µM (≈ 7.86 µg/mL). For the same molecule, the minimum inhibitory concentration (MIC) in the experiment with Brucella abortus worked out at 27 µM (≈ 62.4 µg/mL); in the experiment on Staphylococcus aureus, 54 µM (≈ 125 µg/mL); in the experiment on Acinetobacter baumannii [3], 6.7 µM (≈ 15.5 µg/mL); with Burkholderia mallei, 0.02 µM (≈ 0.0463 µg/mL); with Bacillus anthracis, 27 µM (≈ 62.4 µg/mL).
As to `CC(=O)NCC(=O)N[C@@H](Cc1ccccc1)C(=O)N1Cc2ccccc2C[C@H]1C(=O)N1C[C@@H](C(=O)NCC(=O)N[C@@H](CCCCN)C(=O)N2Cc3ccccc3C[C@H]2C(=O)N2C[C@@H](C(=O)NCC(=O)N[C@@H](Cc3ccccc3)C(=O)N3Cc4ccccc4C[C@H]3C(=O)N3C[C@@H](C(=O)NCC(=O)N[C@@H](CCCCN)C(=O)N4Cc5ccccc5C[C@H]4C(=O)NCCCCCC(=O)N[C@@H](CCCCN)C(=O)N[C@@H](CCCCN)C(=O)N[C@@H](CCCCN)C(=O)N[C@@H](CCCCN)C(N)=O)C4CCCCC43)C3CCCCC32)C2CCCCC21` (stereo partly specified) (Ac-GF[Tic][X1]GK[Tic][X1]GF[Tic][X1]GK[Tic][Ahx]KKKK-NH2), the MIC was determined as 196 µM (≈ 501 µg/mL) in the experiment on Brucella suis; 196 µM (≈ 501 µg/mL) in [1]; 196 µM (≈ 501 µg/mL) against Francisella tularensis; 48.9 µM (≈ 125 µg/mL) with Yersinia pestis; 196 µM (≈ 501 µg/mL) in the experiment on Brucella melitensis; 6.1 µM (≈ 15.6 µg/mL) with Acinetobacter baumannii [2]. Further, the MIC came to 196 µM (≈ 501 µg/mL) in the experiment with Brucella abortus; 196 µM (≈ 501 µg/mL) in the experiment with Staphylococcus aureus; 3 µM (≈ 7.66 µg/mL) against Acinetobacter baumannii [3]; 196 µM (≈ 501 µg/mL) against Burkholderia mallei; 48.9 µM (≈ 125 µg/mL) with Bacillus anthracis.

For orientation: MIC means the smallest concentration in the dilution series that meets the test's criterion for growth inhibition. Low values mean a more susceptible organism, high ones a less susceptible organism.

The values above are taken from ChEMBL document CHEMBL1255229, “Novel antimicrobial peptides that exhibit activity against select agents and other drug resistant bacteria” (2010).
